The values below come from PubChem BioAssay (NCI).

Common to all, as to experiment: NCI anticancer screen, dose series, 48 h
Assay [1] deals with IGROV1 ovarian.
The test system of assay [2] is NCI-H23 lung.
For assay [3], the system named is HCC-2998 colon.
The test system of assay [4] is HCT-15 colon.
The subject of assay [5] is SR leukemia.
Assay [6] deals with SK-OV-3 ovarian.
For assay [7], the system named is TK-10 renal.
The test system of assay [8] is OVCAR-4 ovarian.
In assay [9] the test system is MDA-N.
Assay [10] concerns SNB-19 CNS.
For assay [11], the system named is UO-31 renal.

Molecules are shown by their SMILES.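 Each compound was tested at five concentrations against cells in 96-well plates for 48 hours. GI50 = concentration required for 50% inhibition of growth. TGI is the concentration that stops growth completely.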 Where a SMILES comes first, the peptide text is derived from it.

As to `CCOC(=O)COC1=Nc2cc(OC)c(OC)c3nc(Cl)cc(c23)C1=O`, the TGI in assay [1] was 5.97 µM; in [2], 5.3 µM; in assay [3], 10.5 µM; in assay [4] it was 6.16 µM; in assay [5], over 21.5 µM; in [6], 24.1 µM. Besides, the TGI in [7] is 3.45 µM; in [8] it was 3.14 µM; in assay [9] it was 2.63 µM; in [10], 22.1 µM; in assay [11], 4.13 µM.

`NC(=O)CC[C@H]1C(=O)N=C(N)N1C(=O)OCc1ccccc1`: the TGI in [1], in [2], in assay [3], in [4], in assay [5] and in assay [7] was over 100 µM in each case. Moreover, the TGI in assay [8], in [9], in [10] and in [11] was over 100 µM each time.

In the case of `COC(C[C@H]1CCCC[C@]1(O)/C(=C\CO[Si](C(C)C)(C(C)C)C(C)C)Sc1ccccc1)OC`, the TGI was over 100 µM in [1]; over 100 µM in assay [2]; 34.2 µM in assay [3]; 60 µM in assay [4]; 46.5 µM in assay [5]; over 100 µM in assay [6]. Also, the TGI in assay [7], in assay [8], in assay [9], in assay [10] and in [11] was over 100 µM each time.

Turning to `COc1ccc(C(=O)/C=C/c2ccc(OCCCOc3ccc(/C=C/C(=O)c4ccc(OC)c(OC)c4)cc3)cc2)cc1OC`, the TGI in [1], in [3], in assay [4], in assay [5], in assay [6] and in assay [7] was over 100 µM each time. Further, the TGI in [8], in assay [9], in [10] and in assay [11] was over 100 µM throughout.

`CN1CCCC(OC(=O)c2cc3cc(CCl)ccc3oc2=O)C1` (stereo unspecified): the TGI in assay [1] was over 100 µM; in [2] it was 45.1 µM; in [3], 33.1 µM; in [4], 51.9 µM; in assay [5], 70.1 µM; in assay [6], over 100 µM. Also, the TGI in assay [7] was 48.8 µM; in assay [8], 48.6 µM; in [9], 46 µM; in assay [10] it was over 100 µM; in assay [11], 32.5 µM.

With `O=P1(N(CCCl)CCCl)NCCCO1` (stereo unspecified), the TGI is over 239 µM in assay [1]; over 250 µM in assay [2]; over 205 µM in assay [3]; over 250 µM in assay [4]; over 250 µM in assay [5]; over 250 µM in assay [6]. In addition, the TGI in assay [7], in assay [8], in [9], in [10] and in assay [11] was over 250 µM throughout.

Take `Nc1cc2ncnc(Nc3cccc(Br)c3)c2cn1`: the TGI in assay [2] was over 100 µM; in assay [4] it was over 100 µM; in [5] it was over 100 µM; in [6], 74.4 µM; in assay [7] it was 8.18 µM; in [8], over 100 µM. Further, the TGI in assay [9], in assay [10] and in [11] was over 100 µM throughout.

Regarding `CC(=O)c1cc(S(=O)(=O)c2ccc(O)c(C(C)=O)c2)ccc1O`, the TGI in assay [1], in assay [2], in assay [3], in assay [4], in assay [5] and in assay [6] was over 100 µM in each case. Moreover, the TGI in assay [7], in assay [8], in assay [9], in assay [10] and in assay [11] was over 100 µM in each case.

With `COc1ccc(Nc2nc(NNC(=O)Cc3ccccc3)nc(NNC(=O)c3ccncc3)n2)cc1`, the TGI in assay [1], in [2], in [3], in assay [4], in [5] and in assay [6] was over 10 µM in each case. Further, the TGI in [7], in [8], in [9], in assay [10] and in assay [11] was over 10 µM each time.

On to `COc1ccc(/C=N/N=C(\N)NO)c(OC)c1OC`, for which the TGI was over 100 µM in assay [1]; over 100 µM in [2]; over 100 µM in assay [3]; over 100 µM in assay [4]; 74.5 µM in assay [5]; over 100 µM in [6]. Also, the TGI in assay [7] is over 100 µM; in assay [8], over 100 µM; in assay [9] it was over 100 µM; in assay [10] it was over 100 µM; in assay [11] it was 91.9 µM.

As to `CCOC(=O)c1c(SCCN2CCCCC2)n(-c2ccccc2)c(=S)n(-c2ccccc2)c1=O`, the TGI was 34.8 µM in [2]; over 53.4 µM in [3]; 9.82 µM in assay [4]; over 20.4 µM in assay [5]; over 100 µM in [6]; 31.9 µM in [7]. In addition, the TGI in assay [8] was 33 µM; in assay [9] it was 36.9 µM; in [10], over 100 µM; in assay [11], 33.9 µM.

Turning to `CCCCNC(=S)Nc1nc(C(=O)NNC(=S)NCc2ccccc2)cs1`, the TGI in [1] was over 100 µM; in assay [2] it was over 100 µM; in assay [3] it was over 100 µM; in assay [4], over 100 µM; in [5], 27.5 µM; in assay [6], over 100 µM. The TGI in assay [7], in assay [8], in assay [9] and in assay [11] was over 100 µM throughout.

As to `CN1C(=O)C(CCO)(C(C)(C)C)c2ccccc21` (stereo unspecified), the TGI in assay [2], in assay [3], in assay [4], in assay [5], in assay [6] and in [8] was over 100 µM each time. For the same compound, the TGI in assay [9], in assay [10] and in [11] was over 100 µM each time.

For the compound `Cc1c(Cl)c(=O)oc2cc(OCC(O)COC(C)C)ccc12` (stereo unspecified), the TGI in [1] was over 100 µM; in assay [2], over 100 µM; in assay [3] it was 37.3 µM; in [5], 73.2 µM; in assay [6], over 100 µM; in [7], over 100 µM. Moreover, the TGI in [8], in assay [9], in assay [10] and in [11] was over 100 µM in each case.

Turning to `COc1ccc(OC)c(-c2cn3c(n2)sc2ccccc23)c1`, the TGI in assay [1], in [2], in [4], in [5], in assay [6] and in assay [7] was over 100 µM in each case. Moreover, the TGI in assay [8], in [9], in [10] and in assay [11] was over 100 µM each time.

`CCC(=O)Nc1ccc(N2C(=O)/C(=C/c3ccc(O)c(OC)c3)N=C2c2ccccc2)cc1`: the TGI in [1], in [2], in assay [3], in assay [4], in assay [5] and in assay [6] was over 100 µM in each case. Also, the TGI in assay [8], in [9], in assay [10] and in [11] was over 100 µM throughout.

`CCC(C)C(NC(=O)C1CCCN1)C(=O)NC(C(=O)NCC(=O)NC(CC(N)=O)C(=O)NC(CC(C)C)C(=O)NC(CC(C)C)C(=O)NC(CCCCN)C(N)=O)C(C)C` (stereo unspecified) (H-PIVGNLLK-NH2; configuration not given here): the TGI in assay [1], in [2], in assay [4], in assay [5], in assay [6] and in assay [7] was over 75 µM each time. Further, the TGI in [8], in [9], in [10] and in assay [11] was over 75 µM throughout.

In the case of `Cc1cc(C)c(C#N)c(SC(=S)NC(=O)c2ccccc2)n1`, the TGI in assay [1], in [2], in [3], in assay [4], in [5] and in [7] was over 100 µM throughout. The TGI in [8], in assay [9], in assay [10] and in assay [11] was over 100 µM each time.

Take `COC(=O)NC(Nc1ccc(C)cc1)(C(F)(F)F)C(F)(F)F`: the TGI in [1], in [2], in assay [3], in [4], in [5] and in [6] was over 100 µM each time. The TGI in assay [7], in [9], in [10] and in assay [11] was over 100 µM each time.

Consider `Cc1cn(C2CC(SCCO)C(CO)O2)c(=O)[nH]c1=O` (stereo unspecified), for which the TGI in [1], in [2], in assay [3], in assay [4], in [5] and in [6] was over 100 µM in each case. The TGI in [8], in [9], in [10] and in [11] was over 100 µM in each case.

Regarding `COc1ccc(C[C@H]2COC(=O)[C@@H]2Cc2ccccc2)cc1OC`, the TGI in assay [1], in assay [2], in assay [5], in [6], in [7] and in assay [9] was over 100 µM throughout. Further, the TGI in [10] was over 100 µM.

`O=C1/C(=C/c2cccs2)N=C(c2ccccc2)N1c1nc2ccccc2s1`: the TGI in [1], in assay [2], in assay [3], in assay [4], in assay [5] and in [7] was over 100 µM throughout. For the same compound, the TGI in assay [9], in assay [10] and in assay [11] was over 100 µM throughout.

Consider `O=C1NC(=S)N/C1=C\c1ccc(Sc2ccccc2C(=O)O)s1`, for which the TGI in assay [1], in assay [2], in assay [3], in [4], in assay [5] and in assay [7] was over 100 µM each time. Moreover, the TGI in [8], in assay [9], in assay [10] and in assay [11] was over 100 µM each time.

As to `COc1c(-c2ccc(F)cc2)oc2cc(O)cc(O)c2c1=O`, the TGI in [1] is over 100 µM; in assay [2], 78.2 µM; in assay [3], 31.9 µM; in assay [4], 38 µM; in assay [5], over 100 µM; in [6], over 100 µM. For the same compound, the TGI was 62 µM in assay [9], over 100 µM in assay [10] and 42.1 µM in assay [11].

Take `COc1ccc2c3c([nH]c2c1)-c1nc2ccccc2c(=O)n1CC3`: the TGI in assay [1], in assay [3], in assay [4], in assay [5], in assay [6] and in assay [7] was over 25 µM each time. Also, the TGI in assay [8], in [9], in assay [10] and in assay [11] was over 25 µM each time. For the same compound, in assay [8], the GI50 is over 25 µM.

Consider `Cc1ccc(C2(N3CCOCC3)OC(C)(C)c3cccc4cccc2c34)cc1` (stereo unspecified), for which the TGI in assay [1] is 35.2 µM; in assay [2], 34.9 µM; in assay [4], 40 µM; in [5], over 100 µM; in assay [6], 31.2 µM; in [7] it was 39 µM. For the same compound, the TGI in [8] was found to be 31.1 µM; in [9], 34.1 µM; in [10] it was 32.6 µM; in [11] it was 31 µM.
